“Also recorded” adds a separate entry of the source.
Tests used:
[1] = tested on: retinal and choroidal endothelial cells; conditions: cited from earlier work
[2] = tested on: laser-induced choroidal neovascularization
[3] = molecular target: Ref-1/APE1 endonuclease activity (Homo sapiens, UniProt P27695); conditions: cited from earlier work
[4] = tested on: APE1 repair activity in neurons; conditions: cited from earlier work
[5] = tested on: NF-κB and HIF-1α activity; conditions: retinal pigment epithelial cells; concomitant reduction in VEGF expression; cited from earlier work
[6] = tested on: total vessel density and VEGF expression; conditions: stroke in type one diabetes mellitus rats; cited from earlier work
[7] = tested on: retinal neovascularization; conditions: delivered intravitreally; cited from earlier work
[8] = tested on: laser-induced choroidal neovascularization; conditions: delivered intravitreally; cited from earlier work

Ref-1/APE1 endonuclease activity, sequence (P27695 whole entry): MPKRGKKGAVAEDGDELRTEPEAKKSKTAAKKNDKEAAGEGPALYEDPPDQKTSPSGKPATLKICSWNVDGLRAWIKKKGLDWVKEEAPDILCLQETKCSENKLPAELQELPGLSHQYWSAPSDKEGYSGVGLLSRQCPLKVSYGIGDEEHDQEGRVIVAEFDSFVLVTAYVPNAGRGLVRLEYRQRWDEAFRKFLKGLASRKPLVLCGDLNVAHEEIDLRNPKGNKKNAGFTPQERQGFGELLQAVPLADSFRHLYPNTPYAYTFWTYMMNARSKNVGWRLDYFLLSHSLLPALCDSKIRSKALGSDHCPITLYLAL

**Q.** For `CCCCCCCCC/C(=C\C1=C(C)C(=O)C(OC)=C(OC)C1=O)C(=O)O` [APX3330], which “in vitro angiogenesis (proliferation, migration, tube formation)” value [1] is on record?
**A.** block in vitro angiogenesis

**Q.** What about the “intraocular or systemic toxicity in vivo” value ([2]; i.p. dosing in L-CNV mice) of the same compound?
**A.** not observed obvious intraocular or systemic toxicity

**Q.** What about the L-CNV volume ([2]; i.p., 50 mg/kg twice daily, 5 days on/two days off, two weeks) of the same compound?
**A.** significantly reduced L-CNV volume

**Q.** What about the “effect on endonuclease / APE1 activity” value [3] of the same compound?
**A.** does not affect the protein's endonuclease activity; also recorded: do not inhibit APE1 activity

**Q.** And the “APE1 repair activity in neurons” value [4]?
**A.** can enhance APE1 repair activity

**Q.** And the “NF-κB and HIF-1α activity” value [5]?
**A.** reduced both NF-κB and HIF-1α activity

**Q.** And the “total vessel density and VEGF expression” value [6]?
**A.** significantly decreased total vessel density and VEGF expression

**Q.** What about the “neovascularization, VLDLR knockout mouse” value [7] of the same compound?
**A.** reduced neovascularization

**Q.** And the “neovascularization, L-CNV” value [8]?
**A.** reduced neovascularization
